Measurements as given in PubChem BioAssay AID1508610 (The Scripps Research Institute Molecular Screening Center, 2020).
The source made the active and inactive calls. No rule for the calls is given here.

target: G-protein coupled receptor 151 (Homo sapiens) (UniProt Q8TDV0); assay: GPR151 activator potency, dose response, cell-based (AID 1508610); settings: cell-based GPR151 activation reporter
Sequence (Q8TDV0 whole entry, looked up): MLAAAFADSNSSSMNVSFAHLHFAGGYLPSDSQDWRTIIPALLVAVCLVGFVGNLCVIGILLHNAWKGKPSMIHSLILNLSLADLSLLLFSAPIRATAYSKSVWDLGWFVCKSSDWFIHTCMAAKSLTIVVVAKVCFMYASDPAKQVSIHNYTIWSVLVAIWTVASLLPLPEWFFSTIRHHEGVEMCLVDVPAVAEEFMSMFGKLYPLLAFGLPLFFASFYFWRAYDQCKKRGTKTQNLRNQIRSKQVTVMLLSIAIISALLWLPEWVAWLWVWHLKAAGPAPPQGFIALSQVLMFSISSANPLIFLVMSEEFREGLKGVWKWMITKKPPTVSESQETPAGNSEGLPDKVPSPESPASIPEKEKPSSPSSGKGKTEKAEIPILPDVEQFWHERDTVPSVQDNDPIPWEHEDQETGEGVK

Structure (SMILES) | EC50
C=CCN1C(=O)CS/C1=N\NC(=O)c1ccccc1 | > 28.5 µM (inactive)
O=C(O)CC1c2ccccc2CCN1S(=O)(=O)c1ccc(Cl)cc1 (configuration not stated) | inactive
C=CCN1/C(=C\C=C2\C=Nc3ccc(Br)cc32)C=Cc2ccc(C)cc21 | > 21.9 µM (inactive)
COc1ccc(Cn2nccc2N)cc1OC | > 28.8 µM (inactive)
CC(C)CC(NC(=O)C(C)NC(=O)CNC(=O)C(NC=O)C(C)C)C(=O)NC(C)C(=O)NC(C(=O)NC(C(=O)NC(C(=O)NC(Cc1c[nH]c2ccccc12)C(=O)NC(CC(C)C)C(=O)NC(Cc1c[nH]c2ccccc12)C(=O)NC(CC(C)C)C(=O)NC(Cc1c[nH]c2ccccc12)C(=O)NC(CC(C)C)C(=O)NC(Cc1c[nH]c2ccccc12)C(=O)NCCO)C(C)C)C(C)C)C(C)C (configuration not stated) | 0.97 µM
Cc1ccc(/C(=N/NC(=O)Cc2ccccc2)C23CN4CN(CN(C4)C2)C3)cc1 | > 28 µM (inactive)
Cn1c(=O)oc2cc(S(=O)(=O)N3CCCC(C(=O)N4CCOCC4)C3)ccc21 (configuration not stated) | > 28 µM (inactive)
CC(=O)OCC1=C(C(=O)O)N2C(=O)[C@@H](NC(=O)Cc3cccs3)[C@H]2SC1 | > 28 µM (inactive)
C[C@H](O)[C@H]1NC(=O)[C@@H]2C[C@H](NCc3cccc(F)c3)CN2C1=O | > 28 µM (inactive)
O=C(Nc1ncc([N+](=O)[O-])s1)c1ccc(Cl)cc1Cl | > 27.3 µM (inactive)
CCC(C)NC(=O)c1cc(=O)[nH]c2ccc(Br)cc12 (configuration not stated) | 0.867 µM
O=C(O)c1ccc(COc2ccc3c(c2)CCC3)o1 | > 28 µM (inactive)
Cc1ccc(C(=O)Nc2ccc([N+](=O)[O-])cc2)c(Cl)c1 | > 28 µM (inactive)
c1ccc2[nH]c(-c3nc4ccccc4o3)nc2c1 | > 28.6 µM (inactive)
C=CCOC(=O)CCN1C(=O)c2ccccc2C1=O | > 28 µM (inactive)
CCC(C)NC(=O)C1=C(C)C(=O)OC12CCCCC2 (configuration not stated) | > 28 µM (inactive)
Nc1ncc(Br)cc1S(=O)(=O)N1CCN(C2CCCCC2)CC1 | > 28 µM (inactive)
CC(=O)OC(C(=O)NCc1ccco1)c1ccncc1 (configuration not stated) | > 28 µM (inactive)
Cc1ccc(Nc2ncnc3sc(C)c(C)c23)cc1F | > 31.6 µM (inactive)
COc1cc(S(=O)(=O)N2CCN(c3ccc(C)c(C)c3)CC2)ccc1F | > 28 µM (inactive)

Structure (SMILES) | EC50
CSC1=NSC2=NC(=O)/C(=C\c3ccc([N+](=O)[O-])cc3)C(=N)N12 | > 28 µM (inactive)
O=C(NCc1ccc(F)cc1)C(=O)Nc1cccc(Cl)c1 | > 28 µM (inactive)
Cc1ccc(NC(=O)C(CC(=O)O)C2CCCO2)cc1 (configuration not stated) | > 28 µM (inactive)
CC(c1ccccc1)C1CC(=O)N(Cc2ccccc2)C1=O (configuration not stated) | > 32.4 µM (inactive)
CC(C)N1CCN(Cc2ccc(OC3CCCC3)cc2)CC1CCO (configuration not stated) | 0.00143 µM
Cc1cn2c(=O)c(C(=O)NOCc3cccc(C(F)(F)F)c3)cnc2s1 | > 28 µM (inactive)
CC(C(=O)O)c1ccc(C(=O)c2ccccc2)s1 (configuration not stated) | > 28 µM (inactive)
CCC(C)c1ccccc1NC(=S)NC(C)=O (configuration not stated) | > 28 µM (inactive)
CC1(C)Cc2cccc(OCC(=O)NC3=NCCS3)c2O1 | > 29.3 µM (inactive)
COc1ccc(-c2ccc(C(=O)NCCO)s2)cn1 | > 27.9 µM (inactive)
CCOC(=O)c1cnc2c(OC)cccc2c1NC1CCCCCC1 | inactive
O=C(O)c1cccc(COc2cccc(Cl)c2)c1 | > 28 µM (inactive)
CC(C)Cn1c(-c2nn(C)cc2Cl)n[nH]c1=S | > 28 µM (inactive)
CC(C)C[C@@H]1NC(=O)[C@@H]2C[C@H](NC(=O)Nc3cccc(C(F)(F)F)c3)CN2C1=O | > 28 µM (inactive)
Cn1c2c(c(=O)n(C)c1=O)C(c1cccc(F)c1)C1=C(CC(C)(C)CC1=O)N2 (configuration not stated) | > 27.8 µM (inactive)
N#C/C(=C\c1cc(Cl)ccc1O)c1nc2ccccc2[nH]1 | > 28 µM (inactive)
OCCC1CN(Cc2ccc3nonc3c2)CCN1Cc1ccc(F)c(F)c1 (configuration not stated) | > 28 µM (inactive)
O=C(NC1CC1)c1ccc(-c2ccc(N3CCOCC3)nc2)s1 | > 27.6 µM (inactive)
CCOC(=O)C1CCC(CN(CC(C)C)S(=O)(=O)c2ccc([N+](=O)[O-])cc2)CC1 (configuration not stated) | > 23.7 µM (inactive)
N#Cc1sc(NC(=O)c2ccc(F)c(F)c2)nc1Cl | > 28 µM (inactive)

Structure (SMILES) | EC50
CCCCN(CCNC(=O)Cn1ncc2c1-c1cc(C)ccc1OC2)Cc1ccco1 | > 28 µM (inactive)
c1ccc(-c2ccc(-c3nc(-c4ccccn4)no3)cc2)cc1 | > 24.8 µM (inactive)
CN1CCN(c2ccc(/C=C(\C#N)C(N)=O)cc2[N+](=O)[O-])CC1 | > 28 µM (inactive)
O=C1C2C3C=CC(C3)C2C(=O)N1Nc1c(Cl)cc(Cl)cc1Cl (configuration not stated) | > 28 µM (inactive)
Fc1ccc(CSc2ncn[nH]2)cc1 | > 50.7 µM (inactive)
CCCCCCCCCCCCCCCC(=O)SCCOP(=O)(O)OCC[N+](C)(C)C | > 11.2 µM (inactive)
COc1cc(CNc2ccc3ncc(-c4cnn(C)c4)n3n2)cc(OC)c1OC | > 28 µM (inactive)
CCNc1nc(OC(C(F)(F)F)C(F)(F)F)nc(N2CCCCC2)n1 | > 28 µM (inactive)
CCCCCCCC(=O)N/N=C/c1ccccc1OC | > 28 µM (inactive)
O=C(NCCO)c1ccc(-c2ccc(N3CCOCC3)nc2)s1 | > 27 µM (inactive)
COCCNCCOc1ccc(C)cc1C | > 28 µM (inactive)
OC1CCN(Cc2ccc3c(c2)CN(CC2CC=CCC2)CCO3)CC1 (configuration not stated) | > 28 µM (inactive)
O=C(CN1C(=O)C(c2ccccc2)=NC12CCCC2)Nc1ccccc1 | > 28 µM (inactive)
COc1ccc(OCc2cc(C(=O)N(C)Cc3ccncn3)no2)c(Cl)c1 | > 28 µM (inactive)
O=C(Nc1nnc(SCc2cccc(F)c2)s1)C1CC1 | > 29 µM (inactive)
O=C1CC(C(=O)N2CCCC(c3[nH]ncc3-c3ccccc3)C2)c2ccccc21 (configuration not stated) | > 28 µM (inactive)
CN(C)/C=C1/C(=O)N(c2nc3ccccc3s2)N=C1C(F)(F)F | > 38.5 µM (inactive)
O=C1CS/C(=C\c2nc3ccccc3s2)N1 | > 31.6 µM (inactive)
CCOC(=O)c1c(NC(=O)C(C)C)sc(C(C)=O)c1C | inactive

Further lines, results first:

EC50 | Structure (SMILES)
> 18.8 µM (inactive) | CCOc1ccc(NC(=O)C(=O)NCCN2CCN(S(=O)(=O)c3ccc4ccccc4c3)CC2)cc1
> 26.2 µM (inactive) | COc1ccccc1C(=O)Nc1nc2ccccc2s1
> 28 µM (inactive) | CCC(=O)N1CCN(c2ccc(NC(=O)c3ccco3)cc2)CC1
1e-05 µM | CC(=O)Oc1cccc(N2C(=O)C3C4c5ccccc5C(C)(c5ccccc54)C3C2=O)c1 (configuration not stated)
> 27.7 µM (inactive) | COc1ccc(-c2ccc(C(=O)NCCc3ccc(O)cc3)s2)cc1
> 20.9 µM (inactive) | O=C(Nc1c2c(nn1-c1cccc(Cl)c1)CSC2)c1ccccc1Br
> 29.9 µM (inactive) | O=c1c2ccccc2cnn1-c1nc2ccccc2[nH]1
inactive | Cc1nn(-c2ccc(Nc3ccc(NC(=O)c4cccc(F)c4)cc3)nn2)c(C)c1C
inactive | COc1ccc(CCNc2ccnc(Nc3ccc(-n4ccnc4)cc3)n2)cc1
0.00244 µM | COc1ccc(N=C2SC(CC(=O)Nc3ccc(OC)cc3OC)C(=O)N2C)cc1 (configuration not stated)
> 28 µM (inactive) | Cc1cc2nc(-c3cccnc3SCC(=O)NCc3ccco3)[nH]c2cc1C
> 41.2 µM (inactive) | O=C(NCSc1ccncn1)c1ccccc1
> 28 µM (inactive) | C=CCN1C(=O)/C(=C/c2ccc(OCC(=O)O)cc2)S/C1=N/c1nccs1
> 28 µM (inactive) | CC(C)CCN1C(=O)C(C)(C)COc2cc(NC(=O)c3ccc4c(c3)OCO4)ccc21
1.25 µM | CN1CCN(c2cc(-c3cn[nH]c3)ccc2NC(=O)Cc2cccc(Cl)c2)CC1
> 28 µM (inactive) | CC(=O)Nc1ccc(NC(=O)c2ccc3nc(Nc4ccccn4)sc3c2)cc1
> 17.2 µM (inactive) | O=C(Nc1ccc(Oc2cc3ccccc3cc2Cl)c(Cl)c1)c1cc(Br)cc(Br)c1O
> 28.8 µM (inactive) | CC(=O)c1ccc(NC(=O)COC(=O)c2ccc3c(c2)nc(C)n3-c2ccccc2)cc1
> 29.3 µM (inactive) | CSc1nc2ccc(NC(=O)Cn3cnc4ccccc4c3=O)cc2s1

EC50 | Structure (SMILES)
> 28.1 µM (inactive) | Clc1nc(NCc2ccccc2)c2ncn(-c3ccccc3)c2n1
> 28.7 µM (inactive) | O=C(O)CCC(NCC(O)Cn1c2ccccc2c2ccccc21)C(=O)O (configuration not stated)
> 28 µM (inactive) | COc1ccc(-c2noc(CCC(=O)Nc3ccc(C)c(C)c3)n2)cc1
> 28.2 µM (inactive) | COc1ccc(-n2nc3c(c2NC(=O)CCC2CCCC2)CS(=O)(=O)C3)cc1
> 28 µM (inactive) | CC(C)NC(=O)CSc1nnc(-c2cccnc2)n1CCc1ccccc1
> 28.9 µM (inactive) | O=C(Nc1nc2ccccc2[nH]1)c1ccccc1Cl
> 28 µM (inactive) | Cn1cc(CCC(=O)NC2CCN(Cc3ccccc3)CC2)c2ccccc21
> 27.6 µM (inactive) | COc1ccc(-c2nnc(/C=C/c3cccs3)o2)cc1
> 28 µM (inactive) | Cc1nn(C)cc1CN1CCOc2ccc(CN3CCc4ccccc4C3)cc2C1
> 27.8 µM (inactive) | CC(=O)Nc1ccc(Nc2nc(-c3ccc(C(=O)NC4CC4)cc3)nc3nc[nH]c23)cc1
> 24.6 µM (inactive) | Cc1cccc2c(C(=O)NCc3ccccc3)cc(-c3ccccc3)nc12
> 28 µM (inactive) | COc1ccccc1N=C1SC(CC(=O)Nc2cccc([N+](=O)[O-])c2)C(=O)N1C (configuration not stated)
> 28 µM (inactive) | Cc1ccc2c(c1)CN(CCC(=O)NCCCn1nnc3ccccc31)CC(C)O2 (configuration not stated)
> 24.4 µM (inactive) | Cc1cc(-n2c(SCC(=O)NCc3ccco3)nc3n[nH]c(C)c3c2=N)ccc1Cl
> 25.6 µM (inactive) | COc1cc(Nc2cc(-c3ccc(C(N)=O)cc3)nc(N)n2)cc(OC)c1OC
> 27.1 µM (inactive) | CCOc1ccc(-n2c(SCC(=O)Nc3ccccc3CC)nc3n[nH]c(C)c3c2=N)cc1
> 28 µM (inactive) | Cc1ccccc1-n1c(=O)cc(NCCCn2ccnc2)[nH]c1=O
> 28.1 µM (inactive) | O=C(NC1CC1)c1ccc2nc(-c3csc4ccccc34)sc2c1
> 28.2 µM (inactive) | COc1ccc(-c2ccc(C(=O)NCc3cccnc3)s2)cc1
